In EP0364581A1, “METHOD OF STERILIZING PLANT POLLEN” (VSESOJUZNY NAUCHNO-ISSLEDOVATELSKY INST. SELSKOKHOZYAISTV. …, priority 1988, dated 1989):

Columns and labels:
Test in all cases: field test of gametocidal activity (sterilisation of anthers)
[1] = tested on: Winterweizens Sorte Polesskaya-70; assay type: in vivo, Winterweizen; conditions: V. Periode, 2%ige wäßrige Emulsion, 16 kg/ha; for Prozentsatz des Ansetzens bei freier Bestäubung: control = 100
Text: (§1) Die gametozide Aktivität der erfindungsgemäßen Sterilisationsmittel war in Feldversuch in verschiedenen bodenklimatischen Zonen mit Teilstücken von 10 m^2 Größe in drei-- bis viermaliger Wiederholung nachgewiesen. Jedes Sterilisationsmittel wurde mindestens 5 Jahre lang geprüft.
(§2) Die Entwicklung der Perioden der Organogenese wird zytologisch überwacht. Die Behandlung von Pflanzen mit dem Sterilisationsmittel erfolgt am Anfang der fünften Periode der Organogenese nach Kupermann.
(§3) Mit dem Ahrenschieben verwirklicht man die Isolierung von Hauptähren und anderen Stockwerken in Pergamentbeuteln. Bei Weizen und Tritikale werden Einzelisolatoren verwendet. Bei Roggen schließt man je 1 Ähre von 5 bis 7 verschiedenen nebeneinander befindlichen Pflanzen in einen gemeinsamen Isolator ein. Bei Hirse wird jede Rispe getrennt isoliert. Der Sterilitätsprozentsatz (X) für Weizen, Roggen, Tritikale und Hirse wird nach der Formel [formula]
(§4) Samen von unbehandelten Kontrollpflanzen ermittelt.
(§5) Die Kornzahl in nicht isolierten Ähren von Kontrollpflanzen wird bedingt für 100% Ansetzen bei freier Bestäubung angenommen.
(§6) Um zuverlässige Angaben zu erhalten, verwendet man 20 bis 25 Isolatoren jeder Wiederholung für Weizen und Tritikale, 10 bis 15 Isolatoren jeder Wiederholung für Roggen und Hirse.
Pflanzen des Winterweizens Sorte Polesskaya-70 behandelt man in der V. Periode der Organogenese durch Zerstäubund einer 2%igen wäßrigen Emulsion von Phthalsäurediäthylester, Phthalsäurediallylester, Phthalsäuredihexylester, Kaliumsalz der 2-Methyl-3-zyklohexenkarbonsäure, Ammoniumsalz der 2-Methyl-3-zyklohexenkarbonsäure mit Hilfe einer Rückenspritze. Die Emulsion enthält 0,01 Masse% Tetrahydrofuran und 0,1 Masse% C12 -C14 -Kalziumalkylbenzolsulfonat.
Der Verbrauch an Präparat beträgt 16 kg/ha. Als Kontrolle dienen Pflanzen, behandelt mit dem Verdünner ohne Sterilisationsmittel.

[2] = tested on: Winterweizens Sorte Kharkovskaya 81; assay type: in vivo, Winterweizen; conditions: V. und VI. Periode, 2%ige wäßrige Emulsion, 12 kg/ha; for Prozentsatz des Ansetzens der Körner bei freier Bestäubung: control = 100
Text: as §1, §2, §3, §4, §5, §6
Pflanzen des Winterweizens Sorte Kharkovskaya 81 werden in der V. und VI. Periode der Organogenese (nach Kupermann) mit einer 2%igen wäßrigen Emulsion von Natriumsalz der 2-Methyl-3-zyklohexenkarbonsäure, Phthalsäuredihexylester, Ammoniumsalz der 2-Methyl-3-zyklohexenkarbon- säure, Phthalsäuredibutylester, Phthalsäurediallylester behandelt. Die Emulsion enthält 0,01 Masse% Dodezylsulfat und 0,1 Masse% C12-C14 -Kalziumalkylbenzolsulfonat. Der Verbrauch an Präparat beträgt 12 kg/ha.
Die Prüfergebnisse sind in der Tabelle 4 angeführt. Als Kontrolle dienten Pflanzen, behandelt ähnlich wie in Beispiel 1.

[3] = tested on: diploidem Roggen Sorte Kharkovskaya 55; assay type: in vivo; conditions: V. und VI. Periode, 1%ige wäßrige Emulsion, 6 kp/ha; for Prozentsatz des Ansetzens der Körner bei freier Bestäubung: control = 100
Text: as §1, §2, §3, §4, §5, §6
Pflanzen von diploidem Roggen Sorte Kharkovskaya 55 werden in der V. und VI. Periode der Organogenese (nach Kupermann) mit einer 1%igen wäßrigen Emulsion von Phthalsäuredibutylester, Phthalsäurediisobutylester, Phthalsäurediallylester, Phthalsäuredihexylester, 2-Methyl-3-zyklohexen- karbonsäuremethylester, Natriumsalz der 2-Methyl-3-zyklohex- enkarbonsäure behandelt. Die Emulsion enthält 0,01 Masse% Dimethylformamid und 0,1 Masse% C12C14-Kalziumalkylbenzolsulfonat.
Der Verbrauch an Präparat beträgt 6 kp/ha. Als Kontrolle dienen Pflanzen, benandelt mit einem Verdünner ohne Sterilisationsmittel.

[4] = tested on: diploidem Roggen Sorte Voskhod 2; assay type: in vivo; conditions: V. Periode, 1%ige wäßrige Emulsion, 10 kg/ha; for Prozentsatz des Ansetzens der Körner bei freier Bestäubung: control = 100
Text: as §1, §2, §3, §4, §5, §6
Pflanzen von diploidem Roggen Sorte Voskhod 2 werden in der V. Periode der Organogenese (nach Kupermann) mit einer l%igen wäßrigen Emulsion von Phthalsäurediäthylester, Phthalsaurediisobutylester, Kaliumsalz der 2-Methyl-3-zyklohexen- karbonsäure, Ammoniumsalz der 2-Methyl-3-zyklohexenkarbon- säure, 2-Methyl-3-zyklohexenkarbonsäuremethylester, Phthalsaurediallylester behandelt.
Die Emulsion enthält 0,01 Masse% Dodezylsulfat und 0,1 Masse% C12-C14-Kalziumalkylbenzolsulfonat. Der Verbrauch an Präparat beträgt 10 kg/ha, Als Kontrolle dienen Pflanzen, behandelt mit einem Verdünner ohne Sterilisationsmittel.

[5] = tested on: Hirse Sorte K-9693 Kormovoe I; assay type: in vivo; conditions: V. Periode, 1%ige wäßrige Emulsion, 8 kg/ha; for Prozentsatz des Ansetzens der Körner bei freier Bestäubung: control = 100
Text: as §1, §2, §3, §4, §5, §6
Pflanzen der Hirse Sorte K-9693 Kormovoe I werden in der V. Periode der Organogenese (nach Kupermann) mit einer 1%igen wäßrigen Emulsion von Ammoniumsalz der 2-Methyl-3-zyklo- nexenkarbonsäure, Phthalsäuredipropylester, Phthalsäuredibutylester, Phthalsäurediisobutylester, 2-Methyl-3-zyklo- hexenkarbonsäuremethylester, Phthalsäuredihexylester behandelt. Die Emulsion enthält 0,01 Masse% Dodezylsulfat und 0,1 Masse% C12-C14-Kalziumalkylbenzolsulfonat. Der Verbrauch an Präparat beträgt 8 kg/ha. Als Kontrolle dienen Pflanzen, behandelt mit einem Verdünner ohne Sterilisationsmittel. Die Prüfergebnisse sind in der Tabelle 18 angeführt. […] Periode der Organogenese erhalten.

## CCOC(=O)c1ccccc1C(=O)OCC [Beispiel 9, Phthalsäurediäthylester]
[1]
  Kornzahl der Ähre bei freier Bestäubung: 36,8
  Kornzahl der Ähre im Isolator: 0,2
  Prozentsatz der Sterilität: 99,4%
  Prozentsatz des Ansetzens bei freier Bestäubung: 97,4%

## C=CCOC(=O)c1ccccc1C(=O)OCC=C [Beispiel 10, Phthalsäurediallylester]
[1]
  Kornzahl der Ähre bei freier Bestäubung: 35,6
  Kornzahl der Ähre im Isolator: 6,2
  Prozentsatz der Sterilität: 82,0%
  Prozentsatz des Ansetzens bei freier Bestäubung: 94,1%

## CCCCCCOC(=O)c1ccccc1C(=O)OCCCCCC [Beispiel 11, Phthalsäuredihexylester]
[1]
  Kornzahl der Ähre bei freier Bestäubung: 36,0
  Kornzahl der Ähre im Isolator: 0,1
  Prozentsatz der Sterilität: 99,7%
  Prozentsatz des Ansetzens bei freier Bestäubung: 95,2%

## CC1C=CCCC1C(=O)[O-].[K+] (stereo not drawn) [Beispiel 12, Kaliumsalz der 2-Methyl-3-zyklohexenkarbonsäure]
[1]
  Kornzahl der Ähre bei freier Bestäubung: 35,8
  Kornzahl der Ähre im Isolator: 0,0
  Prozentsatz der Sterilität: 100,0%
  Prozentsatz des Ansetzens bei freier Bestäubung: 94,7%

## CC1C=CCCC1C(=O)O.N (stereo not drawn) [Beispiel 13, Ammoniumsalz der 2-Methyl-3-zyklohexenkarbonsäure]
[1]
  Kornzahl der Ähre bei freier Bestäubung: 36,9
  Kornzahl der Ähre im Isolator: 3,7
  Prozentsatz der Sterilität: 89,2%
  Prozentsatz des Ansetzens bei freier Bestäubung: 97,6%

## CC1C=CCCC1C(=O)[O-].[Na+] (stereo not drawn) [Beispiel 18, Natriumsalz der 2-Methyl-3-zyklohexenkarbonsäure]
[2]
  Kornzahl der Ähre bei freier Bestäubung: 32,6
  Kornzahl der Ähre im Isolator: 0,2
  Prozentsatz der Sterilität: 99,4%
  Prozentsatz des Ansetzens der Körner bei freier Bestäubung: 96,2%

## CCCCCCOC(=O)c1ccccc1C(=O)OCCCCCC [Beispiel 19, Phthalsäuredihexylester]
[2]
  Kornzahl der Ähre bei freier Bestäubung: 30,8
  Kornzahl der Ähre im Isolator: 0,0
  Prozentsatz der Sterilität: 100,0%
  Prozentsatz des Ansetzens der Körner bei freier Bestäubung: 90,8%

## CC(C)COC(=O)c1ccccc1C(=O)OCC(C)C [Beispiel 69, Phthalsäurediisobutylester]
[3]
  Kornzahl der Ähre bei freier Bestäubung: 50,8
  Kornzahl der Ähre im Isolator: 0,2
  Prozentsatz der Sterilität: 99,6%
  Prozentsatz des Ansetzens der Körner bei freier Bestäubung: 96,9%

## C=CCOC(=O)c1ccccc1C(=O)OCC=C [Beispiel 70, Phthalsäurediallylester]
[3]
  Kornzahl der Ähre bei freier Bestäubung: 51,2
  Kornzahl der Ähre im Isolator: 0,1
  Prozentsatz der Sterilität: 99,8%
  Prozentsatz des Ansetzens der Körner bei freier Bestäubung: 97,7%

## CCCCCCOC(=O)c1ccccc1C(=O)OCCCCCC [Beispiel 71, Phthalsäuredihexylester]
[3]
  Kornzahl der Ähre bei freier Bestäubung: 49,7
  Kornzahl der Ähre im Isolator: 0,0
  Prozentsatz der Sterilität: 100,0%
  Prozentsatz des Ansetzens der Körner bei freier Bestäubung: 94,8%

## COC(=O)C1CCC=CC1C (stereo not drawn) [Beispiel 72, 2-Methyl-3-zyklohexen-karbonsäuremethylester]
[3]
  Kornzahl der Ähre bei freier Bestäubung: 48,0
  Kornzahl der Ähre im Isolator: 0,0
  Prozentsatz der Sterilität: 100,0%
  Prozentsatz des Ansetzens der Körner bei freier Bestäubung: 91,6%

## CC1C=CCCC1C(=O)O (stereo not drawn) [Beispiel 73, Natriumsalz der 2-Methyl-3-zyklohex-enkarbonsäure]
[3]
  Kornzahl der Ähre bei freier Bestäubung: 50,1
  Kornzahl der Ähre im Isolator: 0,0
  Prozentsatz der Sterilität: 100,0%
  Prozentsatz des Ansetzens der Körner bei freier Bestäubung: 95,6%

## CCOC(=O)c1ccccc1C(=O)OCC [Beispiel 76, Phthalsäurediäthylester]
[4]
  Kornzahl der Ähre bei freier Bestäubung: 53,4
  Kornzahl der Ähre im Isolator: 0,2
  Prozentsatz der Sterilität: 99,6%
  Prozentsatz des Ansetzens der Körner bei freier Bestäubung: 97,8%

## CC(C)COC(=O)c1ccccc1C(=O)OCC(C)C [Beispiel 77, Phthalsaurediisobutylester]
[4]
  Kornzahl der Ähre bei freier Bestäubung: 52,8
  Kornzahl der Ähre im Isolator: 0,0
  Prozentsatz der Sterilität: 100,0%
  Prozentsatz des Ansetzens der Körner bei freier Bestäubung: 96,7%

## CC1C=CCCC1C(=O)O (stereo not drawn) [Beispiel 78, Kaliumsalz der 2-Methyl-3-zyklohexen-karbonsäure]
[4]
  Kornzahl der Ähre bei freier Bestäubung: 52,2
  Kornzahl der Ähre im Isolator: 0,1
  Prozentsatz der Sterilität: 99,8%
  Prozentsatz des Ansetzens der Körner bei freier Bestäubung: 95,6%

## CC1C=CCCC1C(=O)O (stereo not drawn) [Beispiel 79, Ammoniumsalz der 2-Methyl-3-zyklohexenkarbon-säure]
[4]
  Kornzahl der Ähre bei freier Bestäubung: 51,7
  Kornzahl der Ähre im Isolator: 0,0
  Prozentsatz der Sterilität: 100,0%
  Prozentsatz des Ansetzens der Körner bei freier Bestäubung: 95,0%

## COC(=O)C1CCC=CC1C (stereo not drawn) [Beispiel 80, 2-Methyl-3-zyklohexenkarbonsäuremethylester]
[4]
  Kornzahl der Ähre bei freier Bestäubung: 50,2
  Kornzahl der Ähre im Isolator: 0,0
  Prozentsatz der Sterilität: 100,0%
  Prozentsatz des Ansetzens der Körner bei freier Bestäubung: 91,9%

## C=CCOC(=O)c1ccccc1C(=O)OCC=C [Beispiel 81, Phthalsaurediallylester]
[4]
  Kornzahl der Ähre bei freier Bestäubung: 53,5
  Kornzahl der Ähre im Isolator: 0,8
  Prozentsatz der Sterilität: 98,4%
  Prozentsatz des Ansetzens der Körner bei freier Bestäubung: 97,9%

## CC1C=CCCC1C(=O)O.N (stereo not drawn) [Beispiel 97, Ammoniumsalz der 2-Methyl-3-zyklo-nexenkarbonsäure]
[5]
  Kornzahl der Rispe bei freier Bestäubung: 121,6
  Kornzahl der Rispe im Isolator: 0,0
  Prozentsatz der Sterilität: 100,0%
  Prozentsatz des Ansetzens der Körner bei freier Bestäubung: 82,9%

## CCCOC(=O)c1ccccc1C(=O)OCCC [Beispiel 98, Phthalsäuredipropylester]
[5]
  Kornzahl der Rispe bei freier Bestäubung: 130,7
  Kornzahl der Rispe im Isolator: 0,0
  Prozentsatz der Sterilität: 100,0%
  Prozentsatz des Ansetzens der Körner bei freier Bestäubung: 89,1%

## CCCCOC(=O)c1ccccc1C(=O)OCCCC [Beispiel 99, Phthalsäuredibutylester]
[5]
  Kornzahl der Rispe bei freier Bestäubung: 127,9
  Kornzahl der Rispe im Isolator: 0,0
  Prozentsatz der Sterilität: 100,0%
  Prozentsatz des Ansetzens der Körner bei freier Bestäubung: 87,9%

## CC(C)COC(=O)c1ccccc1C(=O)OCC(C)C [Beispiel 100, Phthalsäurediisobutylester]
[5]
  Kornzahl der Rispe bei freier Bestäubung: 110,4
  Kornzahl der Rispe im Isolator: 0,0
  Prozentsatz der Sterilität: 100,0%
  Prozentsatz des Ansetzens der Körner bei freier Bestäubung: 75,3%

## COC(=O)C1CCC=CC1C (stereo not drawn) [Beispiel 101, 2-Methyl-3-zyklo-hexenkarbonsäuremethylester]
[5]
  Kornzahl der Rispe bei freier Bestäubung: 127,8
  Kornzahl der Rispe im Isolator: 0,0
  Prozentsatz der Sterilität: 100,0%
  Prozentsatz des Ansetzens der Körner bei freier Bestäubung: 87,1%

## CCCCCCOC(=O)c1ccccc1C(=O)OCCCCCC [Beispiel 102, Phthalsäuredihexylester]
[5]
  Kornzahl der Rispe bei freier Bestäubung: 136,6
  Kornzahl der Rispe im Isolator: 0,0
  Prozentsatz der Sterilität: 100,0%
  Prozentsatz des Ansetzens der Körner bei freier Bestäubung: 93,1%
